Experimental findings from ChEMBL document CHEMBL1201862, “PubChem BioAssay data set” (2004) are described below.

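Grown in 96-well plates, cells were treated for 48 hours with each compound at five concentrations. Insufficient inhibition: endpoint recorded as highest concentration tested. GI50: concentration for 50% inhibition of growth.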 The source made the active and inactive calls. No stated cut-off is given here; in the data, active = GI50 up to about 1.1 µM and inactive = higher.

Common to all, as to test: NCI-60 cell line screen, 48 h
For assay [1], the system named is A498.
For assay [2], the system named is CAKI-1.
Assay [3] concerns DLD-1.
In assay [4] the test system is DMS-273.
The subject of assay [5] is EKVX.
Assay [6] relates to HOP-18.
For assay [7], the system named is HT-29.
Assay [8] has as its system IGROV-1.
In assay [9] the test system is KM12.
The subject of assay [10] is NCI-H522.
The subject of assay [11] is OVCAR-5.
Assay [12] has as its system SF-295.
Assay [13] relates to SF-539.
For assay [14], the system named is SK-MEL-5.
The test system of assay [15] is SN12C.
Assay [16] has as its system SNB-78.
The test system of assay [17] is XF498.
For assay [18], the system named is Hs-578T.
Assay [19] has as its system NCI/ADR-RES.
Assay [20] concerns PC-3.

Regarding `CC(=O)OCC1=C(CCC#N)N2C(=O)C(NC(=O)Cc3cccs3)C2[S+]([O-])C1` (centres undefined), the GI50 in assay [1], in [2], in assay [3], in assay [4], in assay [5] and in assay [6] was > 100 µM (inactive) in each case. For the same compound, the GI50 is > 100 µM (inactive) in [7]; > 100 µM (inactive) in assay [8]; > 100 µM (inactive) in [9]; 44.6 µM (inactive) in assay [10]; > 100 µM (inactive) in assay [11]; > 100 µM (inactive) in assay [12]. Moreover, the GI50 in assay [13], in [14], in assay [15], in assay [16] and in assay [17] was > 100 µM (inactive) in each case.

As to `NC(=O)c1csc(C2OC(CO)C(O)C2O)n1` (centres undefined), the GI50 was 785 µM (inactive) in [1]; 8.57 µM (inactive) in assay [3]; 30.8 µM (inactive) in assay [4]; 543 µM (inactive) in assay [5]; 1170 µM (inactive) in [6]; 40.3 µM (inactive) in assay [7]. Besides, the GI50 in assay [18] is 44.7 µM (inactive); in [8] it was 42.4 µM (inactive); in [9], 48.4 µM (inactive); in [10] it was 50.1 µM (inactive); in assay [19] it was 57 µM (inactive); in assay [11], 436 µM (inactive). The GI50 is 4.9 µM (inactive) in assay [20]; 20.3 µM (inactive) in [13]; 96.8 µM (inactive) in [14]; 379 µM (inactive) in [15]; 92.7 µM (inactive) in assay [16]; 67.8 µM (inactive) in assay [17].

In the case of `OCC1OC(c2nc(C3=NCCCN3)cs2)C(O)C1O` (centres undefined), the GI50 in [1], in assay [2], in assay [3], in assay [4], in [5] and in assay [6] was > 100 µM (inactive) throughout. Further, the GI50 in [7] is > 100 µM (inactive); in [8] it was > 100 µM (inactive); in assay [9], > 10 µM (inactive); in assay [10], > 100 µM (inactive); in assay [11], > 100 µM (inactive); in [12], > 10 µM (inactive). Besides, the GI50 in assay [13], in assay [15], in [16] and in [17] was > 100 µM (inactive) throughout.

Consider `COc1cc(OC)c2c(c1)C(=O)C(CC1(C)OCCCO1)=CC2=O`, for which the GI50 is 18.4 µM (inactive) in assay [1]; 8 µM (inactive) in assay [2]; 4.17 µM (inactive) in assay [3]; 7.48 µM (inactive) in [4]; 14.3 µM (inactive) in [5]; 13 µM (inactive) in assay [6]. For the same compound, the GI50 in assay [7] was 13.8 µM (inactive); in assay [8] it was 17.9 µM (inactive); in [9], 14.3 µM (inactive); in assay [10] it was 3.43 µM (inactive); in assay [11], 16.9 µM (inactive); in assay [12], 14.6 µM (inactive). Also, the GI50 in assay [13] was 12.8 µM (inactive); in assay [14], 8.04 µM (inactive); in assay [15] it was 14 µM (inactive); in [16] it was 7.96 µM (inactive); in assay [17], 9.48 µM (inactive).

Regarding `C=C1CCCC2OC(OC)CCC12` (centres undefined), the GI50 in assay [1], in assay [2], in [3], in assay [4], in assay [5] and in assay [6] was > 100 µM (inactive) throughout. Further, the GI50 in assay [7], in [8], in assay [9], in assay [10], in assay [11] and in assay [12] was > 100 µM (inactive) each time. In addition, the GI50 in assay [13], in assay [14], in [15], in [16] and in [17] was > 100 µM (inactive) throughout.

As for `CCC12C=CCN3CC[C@]4(C(=C(C(=O)OC)[C@@H]1Nc1ncnc5c1ncn5C1OC(COC(C)=O)C(OC(C)=O)C1OC(C)=O)Nc1ccccc14)C32` (some centres undefined), the GI50 in [1] was 2.04 µM (inactive); in [2], 3.42 µM (inactive); in assay [3], 2.69 µM (inactive); in assay [4], 2.75 µM (inactive); in assay [5] it was 4.78 µM (inactive); in [6] it was 7.64 µM (inactive). The GI50 in assay [7] was 2.23 µM (inactive); in assay [8], 2.85 µM (inactive); in assay [9], 2.42 µM (inactive); in assay [10], 1.7 µM (inactive); in [11], 3.47 µM (inactive); in [12], 3.05 µM (inactive). Besides, the GI50 in [13] is 2.18 µM (inactive); in assay [14] it was 2.55 µM (inactive); in [15] it was 2.01 µM (inactive); in assay [16] it was 3.15 µM (inactive); in assay [17], 3 µM (inactive).

Take `COc1cc2c(c(OC)c1OC)-c1ccc(OC)c(=O)cc1[C@@H](N(C)C=O)CC2`: the GI50 is 0.0209 µM (active) in [1]; 0.0304 µM (active) in assay [2]; 0.0198 µM (active) in assay [3]; 0.0116 µM (active) in assay [4]; 9.2 µM (inactive) in assay [5]; > 100 µM (inactive) in assay [6]. For the same compound, the GI50 in assay [7] was 0.0156 µM (active); in [8], 0.0262 µM (active); in assay [9] it was < 0.01 µM (active); in [10] it was 0.015 µM (active); in assay [11], > 8.51 µM (inactive); in assay [12] it was 0.0146 µM (active). Also, the GI50 in assay [13] was 0.0148 µM (active); in assay [14], < 0.01 µM (active); in assay [15], 0.0329 µM (active); in assay [16], 0.0135 µM (active); in assay [17], 0.112 µM (active).
